Measurements taken from ChEMBL document CHEMBL5104202, “Structure-Uptake Relationship Studies of Oxazolidinones in Gram-Negative ESKAPE Pathogens” (J Med Chem, 2022).

Columns and labels:
Type in all cases: functional, organism-based
[1] = test system: Acinetobacter baumannii; assay: Antibacterial activity against wild type Acinetobacter baumannii assessed as inhibition of bacterial growth
[2] = test system: Pseudomonas aeruginosa; assay: Antibacterial activity against recombinant OM pore producing Pseudomonas aeruginosa assessed as inhibition of bacterial growth
[3] = test system: Escherichia coli; assay: Antibacterial activity against wild type Escherichia coli assessed as inhibition of bacterial growth
[4] = test system: Escherichia coli; assay: Antibacterial activity against efflux pump lacking Escherichia coli assessed as inhibition of bacterial growth
[5] = test system: Acinetobacter baumannii; assay: Antibacterial activity against efflux pump lacking Acinetobacter baumannii assessed as inhibition of bacterial growth
[6] = test system: Escherichia coli; assay: Antibacterial activity against efflux pump lacking/recombinant OM pore producing Escherichia coli assessed as inhibition of bacterial growth
[7] = test system: Escherichia coli; assay: Antibacterial activity against recombinant OM pore producing Escherichia coli assessed as inhibition of bacterial growth
[8] = test system: Pseudomonas aeruginosa; assay: Antibacterial activity against wild type Pseudomonas aeruginosa assessed as inhibition of bacterial growth
[9] = test system: Acinetobacter baumannii; assay: Antibacterial activity against recombinant OM pore producing Acinetobacter baumannii assessed as inhibition of bacterial growth
[10] = test system: Pseudomonas aeruginosa; assay: Antibacterial activity against efflux pump lacking/recombinant OM pore producing Pseudomonas aeruginosa assessed as inhibition of bacterial growth
[11] = test system: Pseudomonas aeruginosa; assay: Antibacterial activity against efflux pump lacking Pseudomonas aeruginosa assessed as inhibition of bacterial growth
[12] = test system: Acinetobacter baumannii; assay: Antibacterial activity against efflux pump lacking/recombinant OM pore producing Acinetobacter baumannii assessed as inhibition of bacterial growth

Row | SMILES | IC50 [1] | IC50 [2] | IC50 [3] | IC50 [4] | IC50 [5] | IC50 [6] | IC50 [7] | IC50 [8] | IC50 [9] | IC50 [10] | IC50 [11] | IC50 [12]
1 | Cc1ccc(-c2ccc(N3C[C@H](CO)OC3=O)cc2F)cc1 | > 100 µM | > 100 µM | 28 µM | 0.3 µM | 2.3 µM | 0.3 µM | 3.2 µM | > 100 µM | > 100 µM | 3.8 µM | 2.3 µM | 1.6 µM
2 | O=C1O[C@@H](CO)CN1c1ccc(-c2ccc3c(c2)OCO3)c(F)c1 | > 100 µM | > 100 µM | 23 µM | 0.3 µM | 2.4 µM | 0.3 µM | 2.4 µM | > 100 µM | > 100 µM | 0.3 µM | 2.4 µM | 1.5 µM
3 | O=C1O[C@@H](CO)CN1c1ccc(-c2ccccn2)c(F)c1 | > 100 µM | > 100 µM | > 100 µM | 76.8 µM | > 100 µM | 79.6 µM | > 100 µM | > 100 µM | > 100 µM | 47.4 µM | 64.2 µM | > 100 µM
4 | O=C1O[C@@H](CO)CN1c1ccc(-c2ccc(SC(F)(F)F)cc2)c(F)c1 | 63.5 µM | > 100 µM | 35.1 µM | 6.9 µM | 9.1 µM | 4.9 µM | 9.4 µM | > 100 µM | 23.5 µM | 6.9 µM | 78.2 µM | 8.1 µM
5 | O=Cc1ccc(-c2ccc(N3C[C@H](CO)OC3=O)cc2F)cc1 | 18.4 µM | 5.9 µM | 66.8 µM | 0.6 µM | 1.1 µM | 0.5 µM | 5 µM | > 100 µM | 16.9 µM | 0.02 µM | 1.1 µM | 1.2 µM
6 | COC(=O)Cn1cc(C#Cc2ccc(N3C[C@H](CO)OC3=O)cc2F)cn1 | > 100 µM | > 100 µM | > 100 µM | 88.7 µM | > 100 µM | 36.6 µM | 52.3 µM | > 100 µM | > 100 µM | > 100 µM | > 100 µM | 62 µM
7 | N/C(=N/O)c1ccc(-c2ccc(N3C[C@H](CO)OC3=O)cc2F)cc1 | 22.1 µM | 63.6 µM | 55.9 µM | 0.6 µM | 1.2 µM | 1 µM | 7.5 µM | > 100 µM | 2.8 µM | 1.8 µM | 5.1 µM | 0.9 µM
8 | O=C1O[C@@H](CO)CN1c1ccc(-c2ccc(F)cc2)c(F)c1 | > 100 µM | 89.8 µM | 89.1 µM | 4.3 µM | 8.8 µM | 2.3 µM | 22.8 µM | > 100 µM | 89.8 µM | 2.2 µM | 8.8 µM | 9.7 µM
9 | CC(C)(C)OC(=O)NNC(=O)C(CC#Cc1ccc(N2C[C@H](CO)OC2=O)cc1F)NC(=O)OC(C)(C)C (stereo partly specified) | > 100 µM | > 100 µM | > 100 µM | 13.3 µM | > 100 µM | 56.1 µM | 51.4 µM | > 100 µM | > 100 µM | > 100 µM | > 100 µM | > 100 µM
10 | Cn1ncc(C#Cc2ccc(N3C[C@H](CO)OC3=O)cc2F)c1C(=O)O | > 100 µM | > 100 µM | > 100 µM | > 100 µM | 88.2 µM | > 100 µM | > 100 µM | > 100 µM | 61.3 µM | > 100 µM | > 100 µM | 89.5 µM
11 | Cc1nn(C)c(C)c1C#Cc1ccc(N2C[C@H](CO)OC2=O)cc1F | > 100 µM | > 100 µM | > 100 µM | 86.3 µM | > 100 µM | 3.4 µM | 1.2 µM | > 100 µM | > 100 µM | > 100 µM | > 100 µM | > 100 µM
12 | NC(=S)Nc1cccc(C#Cc2ccc(N3C[C@H](CO)OC3=O)cc2F)c1 | > 100 µM | > 100 µM | > 100 µM | 85 µM | > 100 µM | 64.5 µM | > 100 µM | > 100 µM | > 100 µM | > 100 µM | > 100 µM | > 100 µM
13 | CC[n+]1ccc(-c2ccc(N3C[C@H](CO)OC3=O)cc2F)cc1 | > 100 µM | > 100 µM | 43.8 µM | 13.7 µM | > 100 µM | 15.9 µM | 36 µM | > 100 µM | > 100 µM | 42.3 µM | 57.4 µM | 38.5 µM
14 | CC(C)(C)Oc1cc(-c2ccc(N3C[C@H](CO)OC3=O)cc2F)cnc1C#N | > 100 µM | > 100 µM | > 100 µM | > 100 µM | > 100 µM | > 100 µM | > 100 µM | > 100 µM | > 100 µM | > 100 µM | > 100 µM | > 100 µM
15 | O=C1O[C@@H](CO)CN1c1ccc(-c2ccc3cnccc3c2)c(F)c1 | > 100 µM | > 100 µM | > 100 µM | > 100 µM | 5.6 µM | > 100 µM | > 100 µM | > 100 µM | > 100 µM | 37.9 µM | 67.7 µM | 5.6 µM
16 | O=C1O[C@@H](CO)CN1c1ccc(-c2ccc(-c3ccccn3)cc2)c(F)c1 | 35.3 µM | > 100 µM | 76.2 µM | 55.6 µM | 21.5 µM | 55.2 µM | 47.2 µM | > 100 µM | 35.3 µM | > 100 µM | > 100 µM | 21.5 µM
17 | COc1ccc(CN)cc1OCC#Cc1ccc(N2C[C@H](CO)OC2=O)cc1F | > 100 µM | > 100 µM | > 100 µM | > 100 µM | > 100 µM | > 100 µM | > 100 µM | > 100 µM | > 100 µM | > 100 µM | > 100 µM | > 100 µM
18 | CC(C)c1ccc(-c2ccc(N3C[C@H](CO)OC3=O)cc2F)c(C(C)C)c1 | > 100 µM | > 100 µM | 99.1 µM | 15.9 µM | 17.3 µM | 6.6 µM | 20.4 µM | > 100 µM | 77.9 µM | 22.3 µM | 49 µM | 8.2 µM
